Source: patent US20240246941A1, “SUBSTITUTED 4-(3-AMINOPROP-1-YL)AMINOQUINOLINE ANALOGS AS MODULATORS OF MELANOMA-ASSOCIATED ANTIGEN 11 UBIQUITIN LIGASE” (ST. JUDE CHILDREN'S RESEARCH HOSPITAL, INC., priority 2020, published 2024)

Target: MAGE-A11:PCF11 (Homo sapiens (Human), UniProt P43364)
Assay: TR-FRET single point screening at 15 μM
Format: binding
Set-up: unit not given here
How it was run: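 Competition TR-FRET: compounds at final 15 μM mixed with 200 nM FAM-PCF11_4, 5 nM GST-MAGEA11 and 5 nM Tb-anti-GST in Tris pH 7.5/MgCl2/BSA/DTT buffer, room temperature, 90 min. Emission ratio 520/490 nm (340 nm excitation) expressed as % inhibition relative to positive and negative controls.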

[1] = single point TR-FRET screening of quinoline compounds against MAGE-A11:PCF11, 15 μM
[2] = single point TR-FRET screening at 15 μM against MAGE-A11:PCF11

Sequence of MAGE-A11:PCF11 (P43364 218-429): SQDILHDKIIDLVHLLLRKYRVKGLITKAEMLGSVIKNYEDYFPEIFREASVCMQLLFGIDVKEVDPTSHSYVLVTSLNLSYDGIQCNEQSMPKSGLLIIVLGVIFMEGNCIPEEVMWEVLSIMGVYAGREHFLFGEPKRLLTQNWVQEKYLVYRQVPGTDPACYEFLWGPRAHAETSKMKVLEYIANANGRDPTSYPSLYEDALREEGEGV

| SMILES | TR-FRET signal [1] | TR-FRET signal [2] |
| --- | --- | --- |
| CCCN(CCCNc1ccnc2cc(C(F)(F)F)ccc12)Cc1ccc(C)o1 [SJ000361261] | 23.91 |  |
| CCCN(CCCNc1ccnc2cc(C(F)(F)F)ccc12)Cc1c(F)cccc1OC [SJ000361262] | 29.23 |  |
| CCCN(CCCNc1ccnc2cc(C(F)(F)F)ccc12)Cc1cc(OC)ccc1O [SJ000361263] | 25.26 |  |
| CCCN(CCCNc1ccnc2cc(C(F)(F)F)ccc12)Cc1c(C)cc(C)cc1C [SJ000361264] | 19.93 |  |
| CCCN(CCCNc1ccnc2cc(C(F)(F)F)ccc12)Cc1ccco1 [SJ000361265] | 24.11 |  |
| CCCN(CCCNc1ccnc2cc(C(F)(F)F)ccc12)CC1CC1 [SJ000361266] | 48.15 |  |
| CCCN(CCCNc1ccnc2cc(C(F)(F)F)ccc12)Cc1ccoc1 [SJ000361267] | 28.55 |  |
| CCCN(CCCNc1ccnc2cc(C(F)(F)F)ccc12)CC1CCCCC1 [SJ000361268] | 33.31 |  |
| CCCN(CCCNc1ccnc2cc(C(F)(F)F)ccc12)CC(CC)CC [SJ000361269] | 30.66 |  |
| CCCN(CCCNc1ccnc2cc(C(F)(F)F)ccc12)Cc1ccc2c(c1)OCO2 [SJ000361270] | 5.623 |  |
| CCCCCN(CCC)CCCNc1ccnc2cc(C(F)(F)F)ccc12 [SJ000361271] | 30.93 |  |
| CCCN(CCCNc1ccnc2cc(C(F)(F)F)ccc12)Cc1ccc(F)c(F)c1 [SJ000361272] | 13.84 |  |
| CCCN(CCCNc1ccnc2cc(C(F)(F)F)ccc12)Cc1ccc(OC)cc1 [SJ000361273] | 22.9 |  |
| CCCN(CCCNc1ccnc2cc(C(F)(F)F)ccc12)Cc1ccccc1F [SJ000361274] | 19.22 |  |
| CCCCCN(CCCCC)CC(=O)Nc1c2c(nc3ccccc13)CCC2 [SJ000487033] |  | −68.07 |
| COC(=O)CN1CCN(c2cc(C)nc3ccccc23)C(C)C1=O (centres unmarked) [SJ000516812] |  | 3.503 |
| Clc1ccc2c(N3CCN(CCCN4CCN(c5ccnc6cc(Cl)ccc56)CC4)CC3)ccnc2c1 [SJ000518980] |  | −2.989 |
| Cc1[nH]cnc1CN(CCCCNc1ccnc2cc(Cl)ccc12)Cc1ccccc1 [SJ000520428] |  | 15.11 |
| COC(=O)CCCCCN(CCCNc1ccnc2cc(Cl)ccc12)Cc1ccccc1 [SJ000520429] | 17.14 |  |
| Clc1ccc2c(NCCCN(Cc3ccccc3)Cc3ccc4[nH]ccc4c3)ccnc2c1 [SJ000520430] | 66.43 |  |
| Cn1ccnc1CN(CCCNc1ccnc2cc(Cl)ccc12)Cc1ccccc1 [SJ000520431] | 15.36 |  |
| COC(=O)CCCCCN(CCCCNc1ccnc2cc(Cl)ccc12)Cc1ccccc1 [SJ000520432] |  | 23.58 |
| Clc1ccc2c(NCCCN(Cc3ccccc3)Cc3c[nH]c4ccccc34)ccnc2c1 [SJ000520433] | 40.19 |  |
| Clc1ccc2c(NCCCCN(Cc3ccccc3)Cc3ccc4[nH]ccc4c3)ccnc2c1 [SJ000520434] |  | 69.44 |
| Cn1ccnc1CN(CCCCNc1ccnc2cc(Cl)ccc12)Cc1ccccc1 [SJ000520435] |  | 5.888 |
| Clc1ccc2c(NCCCCN(Cc3ccccc3)Cc3cccc4c3OCO4)ccnc2c1 [SJ000520436] |  | 21.65 |

| SMILES | TR-FRET signal [1] | TR-FRET signal [2] |
| --- | --- | --- |
| COc1ccc(CN(CCCNc2ccnc3cc(Cl)ccc23)Cc2ccccc2)cc1F [SJ000520437] | 23.65 |  |
| COc1ccc(CN(CCCCNc2ccnc3cc(Cl)ccc23)Cc2ccccc2)cc1F [SJ000520438] |  | 13.15 |
| Cn1cc(CN(CCCNc2ccnc3cc(Cl)ccc23)Cc2ccccc2)c2ccccc21 [SJ000520439] | −9.311 |  |
| Cn1cc(CN(CCCCNc2ccnc3cc(Cl)ccc23)Cc2ccccc2)c2ccccc21 [SJ000520440] |  | −14.35 |
| COc1ccc(F)c(CN(CCCCNc2ccnc3cc(Cl)ccc23)Cc2ccccc2)c1 [SJ000520441] |  | 14.55 |
| CCc1ccc(CN(CCCNc2ccnc3cc(Cl)ccc23)Cc2ccccc2)cc1 [SJ000520442] | 18.89 |  |
| CCc1ccc(CN(CCCCNc2ccnc3cc(Cl)ccc23)Cc2ccccc2)cc1 [SJ000520443] |  | 29.91 |
| COc1ccc(C(F)(F)F)cc1CN(CCCCNc1ccnc2cc(Cl)ccc12)Cc1ccccc1 [SJ000520444] |  | 31.82 |
| COc1ccc(F)c(CN(CCCNc2ccnc3cc(Cl)ccc23)Cc2ccccc2)c1 [SJ000520445] | 4.762 |  |
| Clc1ccc2c(NCCCCN(Cc3ccccc3)Cc3csc4ccccc34)ccnc2c1 [SJ000520446] |  | 33.98 |
| COc1ccc(OC(F)(F)F)cc1CN(CCCCNc1ccnc2cc(Cl)ccc12)Cc1ccccc1 [SJ000520447] |  | 26.66 |
| Clc1ccc2c(NCCCCN(Cc3ccccc3)Cc3nccs3)ccnc2c1 [SJ000520448] |  | −1.698 |
| Cc1ccc(F)cc1CN(CCCCNc1ccnc2cc(Cl)ccc12)Cc1ccccc1 [SJ000520449] |  | 42.32 |
| COc1ccc(C(F)(F)F)cc1CN(CCCNc1ccnc2cc(Cl)ccc12)Cc1ccccc1 [SJ000520450] | 23.18 |  |
| FC(F)(F)Oc1ccc(CN(CCCCNc2ccnc3cc(Cl)ccc23)Cc2ccccc2)cc1 [SJ000520451] |  | 39.87 |
| COc1ccc(OC(F)(F)F)cc1CN(CCCNc1ccnc2cc(Cl)ccc12)Cc1ccccc1 [SJ000520452] | 20.44 |  |
| Clc1ccc2c(NCCCCN(Cc3ccccc3)Cc3cccnc3Br)ccnc2c1 [SJ000520453] |  | 2.377 |
| Clc1ccc2c(NCCCN(Cc3ccccc3)Cc3csc4ccccc34)ccnc2c1 [SJ000520454] | 28.14 |  |
| FC(F)(F)c1cccc(CN(CCCCNc2ccnc3cc(Cl)ccc23)Cc2ccccc2)c1 [SJ000520455] |  | 26.38 |
| Cc1csc(CN(CCCCNc2ccnc3cc(Cl)ccc23)Cc2ccccc2)n1 [SJ000520456] |  | −12.86 |
| FC(F)(F)Oc1cccc(CN(CCCCNc2ccnc3cc(Cl)ccc23)Cc2ccccc2)c1 [SJ000520457] |  | 33.31 |
| Cc1ccc(F)cc1CN(CCCNc1ccnc2cc(Cl)ccc12)Cc1ccccc1 [SJ000520458] | 29.77 |  |
| FC(F)(F)Oc1ccccc1CN(CCCCNc1ccnc2cc(Cl)ccc12)Cc1ccccc1 [SJ000520459] |  | 30.86 |
| FC(F)(F)Oc1ccc(CN(CCCNc2ccnc3cc(Cl)ccc23)Cc2ccccc2)cc1 [SJ000520460] | 25.05 |  |
| Clc1ccc2c(NCCCN(Cc3ccccc3)Cc3cc4ccccc4o3)ccnc2c1 [SJ000520461] | 5.6 |  |
| Clc1ccc2c(NCCCN(Cc3ccccc3)Cc3cccnc3Br)ccnc2c1 [SJ000520462] | 9.715 |  |

| SMILES | TR-FRET signal [1] | TR-FRET signal [2] |
| --- | --- | --- |
| Cc1csc(CN(CCCNc2ccnc3cc(Cl)ccc23)Cc2ccccc2)n1 [SJ000520463] | −10.47 |  |
| FC(F)(F)Oc1cccc(CN(CCCNc2ccnc3cc(Cl)ccc23)Cc2ccccc2)c1 [SJ000520464] | 27.78 |  |
| Fc1cccc(C(F)(F)F)c1CN(CCCCNc1ccnc2cc(Cl)ccc12)Cc1ccccc1 [SJ000520465] |  | 28.75 |
| FC(F)(F)c1cc(CN(CCCCNc2ccnc3cc(Cl)ccc23)Cc2ccccc2)ccc1Cl [SJ000520466] |  | 25.28 |
| Fc1cccc(C(F)(F)F)c1CN(CCCNc1ccnc2cc(Cl)ccc12)Cc1ccccc1 [SJ000520467] | 22.01 |  |
| CCCN(CCCNc1ccnc2cc(C(F)(F)F)ccc12)Cc1c[nH]c2ccccc12 [SJ000520468] | 16.16 |  |
| CCCN(CCCNc1ccnc2cc(C(F)(F)F)ccc12)Cc1cn(C)c2ccccc12 [SJ000520469] | 25.54 |  |
| CCCN(CCCNc1ccnc2cc(C(F)(F)F)ccc12)Cc1ccccc1OC(F)(F)F [SJ000520470] | 5.934 |  |
| CCCN(CCCNc1ccnc2cc(C(F)(F)F)ccc12)Cc1cccc(C(F)(F)F)c1 [SJ000520471] | 13.02 |  |
| CCCN(CCCNc1ccnc2cc(C(F)(F)F)ccc12)Cc1cccc2c1OCO2 [SJ000520472] | 14.62 |  |
| CCCN(CCCNc1ccnc2cc(C(F)(F)F)ccc12)Cc1cccc(OC(F)(F)F)c1 [SJ000520473] | 9.085 |  |
| CCCN(CCCNc1ccnc2cc(C(F)(F)F)ccc12)Cc1ccc(OC(F)(F)F)cc1 [SJ000520474] | 17.38 |  |
| CCCN(CCCNc1ccnc2cc(C(F)(F)F)ccc12)Cc1cc(F)ccc1OC [SJ000520475] | 15.75 |  |
| CCCN(CCCNc1ccnc2cc(C(F)(F)F)ccc12)CCC(C)(C)C [SJ000520476] | 32.33 |  |
| CCCCN(CCC)CCCNc1ccnc2cc(C(F)(F)F)ccc12 [SJ000520477] | 23.58 |  |
| CCCN(CCCNc1ccnc2cc(C(F)(F)F)ccc12)Cc1cc(Br)cs1 [SJ000520478] | −9.243 |  |
| CCCN(CCCNc1ccnc2cc(C(F)(F)F)ccc12)Cc1cc2ccccc2o1 [SJ000520479] | −20.41 |  |
| CCCN(CCCNc1ccnc2cc(C(F)(F)F)ccc12)Cc1cc(OC)ccc1F [SJ000520480] | 11.96 |  |
| CCCN(CCCNc1ccnc2cc(C(F)(F)F)ccc12)Cc1c(F)cccc1C(F)(F)F [SJ000520481] | 11.47 |  |
| CCCN(CCCNc1ccnc2cc(C(F)(F)F)ccc12)Cc1cc2ccccc2s1 [SJ000520482] | 13.01 |  |
| CCCN(CCCNc1ccnc2cc(C(F)(F)F)ccc12)Cc1csc2ccccc12 [SJ000520483] | 19.45 |  |
| CCCN(CCCNc1ccnc2cc(C(F)(F)F)ccc12)Cc1nc2ccccc2s1 [SJ000520484] | 7.404 |  |
| CCCN(CCCNc1ccnc2cc(C(F)(F)F)ccc12)Cc1cc(OC(F)(F)F)ccc1OC [SJ000520485] | 5.6 |  |
| CCCN(CCCNc1ccnc2cc(C(F)(F)F)ccc12)Cc1cc(C(F)(F)F)ccc1OC [SJ000520486] | 8.188 |  |
| O=[N+]([O-])c1ccc(CNCCCNc2ccnc3cc(Cl)ccc23)s1 [SJ000520912] | 6.284 |  |
